The results in this text go back to ChEMBL document CHEMBL1145914 (J Med Chem, 2003).

A short description of series [1]: in vivo. To be noted: dog.
Series [2] can be described thus: in vivo. To be noted: dog. This is another data set of the same source.
Series [3] in a line: in vivo. To be noted: dog. The source holds these as a separate data set.
The next series is filed under the species Homo sapiens. The series can be described thus: human activated partial thromboplastin time (APTT). The series is classed as functional.
In the next series the target is Coagulation factor X (Homo sapiens, UniProt P00742). In words: Tested in vitro for inhibition of human Coagulation factor X.
Coagulation factor X, sequence (P00742 41-179 limits assumed): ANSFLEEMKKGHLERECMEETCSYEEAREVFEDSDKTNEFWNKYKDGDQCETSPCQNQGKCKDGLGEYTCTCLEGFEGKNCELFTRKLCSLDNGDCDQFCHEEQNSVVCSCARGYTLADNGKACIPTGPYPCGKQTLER
Coagulation factor X, sequence (P00742 235-488 limits assumed): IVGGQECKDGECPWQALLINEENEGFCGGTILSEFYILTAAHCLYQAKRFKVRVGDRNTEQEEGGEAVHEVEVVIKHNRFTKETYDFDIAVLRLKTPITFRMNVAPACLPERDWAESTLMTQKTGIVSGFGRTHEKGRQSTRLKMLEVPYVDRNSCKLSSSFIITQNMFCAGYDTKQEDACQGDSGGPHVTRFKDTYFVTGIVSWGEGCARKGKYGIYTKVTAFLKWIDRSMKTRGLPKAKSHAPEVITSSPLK
In a further series the target is Prothrombin (Homo sapiens, UniProt P00734). The series can be described thus: In vitro for inhibition of human thrombin.
The nature of series [4]: in vivo. To be noted: dog. The source holds these as a separate data set.
Another series has as its target Serine protease 1 (Homo sapiens, UniProt P07477). The series can be described thus: Tested in vitro for inhibition of human trypsin.
A short description of series [5]: in vivo. As to conditions: eutheria.

Molecules are shown by their SMILES.

Serine protease 1, sequence (P07477 whole entry): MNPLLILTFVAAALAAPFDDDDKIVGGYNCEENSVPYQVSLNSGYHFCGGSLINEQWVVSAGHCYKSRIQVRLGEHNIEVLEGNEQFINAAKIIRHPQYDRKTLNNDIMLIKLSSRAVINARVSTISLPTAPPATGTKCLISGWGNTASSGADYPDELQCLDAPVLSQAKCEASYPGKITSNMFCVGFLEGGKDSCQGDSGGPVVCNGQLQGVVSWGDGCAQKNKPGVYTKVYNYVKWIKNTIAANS

As a reminder, the half-life is the time needed for the level to fall by half in the phase considered. The clearance is the rate of elimination divided by the concentration. Low values mean a low capacity for elimination, high ones a high capacity for elimination. In general, Vd refers to a proportionality between amount in the body and measured concentration, not a real space. What is called Ki is a dissociation constant, usually derived from enzyme kinetics or from competition with a known ligand. Read a high Ki as weaker binding. Usually Cmax stands for the maximum level reached in the sampled fluid or tissue. Turning to `COc1ccc(-n2nc(C(F)(F)F)cc2C(=O)Nc2ccc(-c3ccccc3S(N)(=O)=O)cn2)cc1`, the half-life in the series “in vivo [1]” is 6 h. The clearance in “in vivo [2]” was 2 mL/min/kg. The Vd in the series “in vivo [3]” is 1.8 L/kg. Moreover, the IC2x in the series listed under Homo sapiens was 18.8 µM. The inhibition constant (Ki) at Coagulation factor X is 2.8 nM; on Prothrombin, > 21000 nM; at Serine protease 1, > 1600 nM. Moreover, the maximum concentration (Cmax) in “in vivo [4]” came out at 730 nM.

One may read the bioavailability as dose-corrected exposure relative to a reference, in per cent. Read a low bioavailability as little systemic uptake. With `COc1ccc(-n2nc(C)cc2C(=O)Nc2ccc(-c3ccccc3S(N)(=O)=O)cc2)cc1`, the half-life in the series “in vivo [1]” was 4.46 h. Further, the bioavailability in “in vivo [5]” stood at 48%. The compound also gave a Cmax in “in vivo [4]” of 3860 nM. The Ki at Serine protease 1 is > 1500 nM.
